Source: article PMC6021035, “Insights into biological activity of ureidoamides with primaquine and amino acid moieties” (Journal of Enzyme Inhibition and Medicinal Chemistry, 2018)
Converted amounts (≈) assume the structure as drawn. Marks after values point to notes of the source that are not given here.

Assays:
[1] = test system: Aspergillus niger ATCC 16404; experiment: MIC determination (broth micro-dilution); format: cell-based; details: ATCC16404
Method: (§1) Before analysis, compounds 5a–f were dissolved in 96% ethanol in a concentration of 2 mg/ml as stock solutions. Inoculums were prepared with fresh cultures of microbial strains, cultured on tryptic-soy agar or Sabouraud 2% (m/v) dextrose agar for 18 h (48–72 h for fungi) at 30 °C with physiological saline containing approximately […]. Inoculum density (0.5 McFarland units) was adjusted with a bio Mériex (France) densitometer. Minimum inhibitory concentration (MIC) was determined by the twofold micro-dilution method in Mu¨ller–Hinton broth for bacterial strains and RPMI 1640 + 2% m/v dextrose for fungi according to the EUCAST recommendations in a sterile 96-well flat-bottom plastic tissue culture plate. MIC was determined using a linear regression curve after incubation of compounds and reading the optical density at 570 nm using an iEMS microplate reader. […] All tests were performed in triplicate and expressed as the mean.

[2] = test system: Bacillus cereus ATCC 11778; experiment: MIC determination (broth micro-dilution); format: cell-based; details: ATCC11778
Method: as §1

[3] = test system: Bacillus subtilis ATCC 6633; experiment: MIC determination (broth micro-dilution); format: cell-based; details: ATCC6633
Method: as §1

[4] = test system: Burkholderia caepacia ATCC 25416; experiment: MIC determination (broth micro-dilution); format: cell-based; details: ATCC25416
Method: as §1

[5] = test system: Candida albicans ATCC 10231; experiment: MIC determination (broth micro-dilution); format: cell-based; details: ATCC10231
Method: as §1

[6] = test system: Candida albicans ATCC 90028; experiment: MIC determination (broth micro-dilution); format: cell-based; details: ATCC90028
Method: as §1

Candida kefyr ATCC 2512 [7] = experiment: MIC determination (broth micro-dilution); format: cell-based; details: Kluyveromyces marxianus, ATCC2512
Method: as §1

[8] = test system: Candida krusei ATCC 14243; experiment: MIC determination (broth micro-dilution); format: cell-based; details: Pichia kudriavzevii, ATCC14243
Method: as §1

[9] = test system: Candida parapsylosis ATCC 22019; experiment: MIC determination (broth micro-dilution); format: cell-based; details: ATCC22019
Method: as §1

[10] = test system: Candida tropicalis ATCC 750; experiment: MIC determination (broth micro-dilution); format: cell-based; details: ATCC750
Method: as §1

[11] = test system: Enterococcus faecalis ATCC 29212; experiment: MIC determination (broth micro-dilution); format: cell-based; details: ATCC29212
Method: as §1

[12] = test system: Enterococcus hyrae ATCC 8043; experiment: MIC determination (broth micro-dilution); format: cell-based; details: ATCC8043
Method: as §1

[13] = test system: Escherichia coli ATCC 10536; experiment: MIC determination (broth micro-dilution); format: cell-based; details: ATCC10536
Method: as §1

[14] = test system: Escherichia coli ATCC 8739; experiment: MIC determination (broth micro-dilution); format: cell-based; details: ATCC8739
Method: as §1

[15] = test system: Issatchenkia orientalis Kudrjanzev ATCC 6258; experiment: MIC determination (broth micro-dilution); format: cell-based; details: Pichia kudriavzevii, ATCC6258
Method: as §1

[16] = test system: Kocuria rhizophila ATCC 9341; experiment: MIC determination (broth micro-dilution); format: cell-based; details: ATCC9341
Method: as §1

[17] = test system: Pseudomonas aeruginosa ATCC 27853; experiment: MIC determination (broth micro-dilution); format: cell-based; details: ATCC27853
Method: as §1

[18] = test system: Pseudomonas aeruginosa ATCC 9027; experiment: MIC determination (broth micro-dilution); format: cell-based; details: ATCC9027
Method: as §1

[19] = test system: Staphylococcus aureus ATCC 25213; experiment: MIC determination (broth micro-dilution); format: cell-based; details: ATCC25213
Method: as §1

[20] = test system: Staphylococcus aureus ATCC 25923; experiment: MIC determination (broth micro-dilution); format: cell-based; details: ATCC25923
Method: as §1

[21] = test system: Staphylococcus aureus ATCC 6538; experiment: MIC determination (broth micro-dilution); format: cell-based; details: ATCC6538
Method: as §1

[22] = test system: Candida albicans ATCC 10231; experiment: Minimum biofilm eradication assay; format: cell-based; details: ATCC10231, 48 h, read-out: MBEC
Method: (§2) We tested the susceptibility of different bacterial and yeast strains to compounds 5a–f by determining the minimum biofilm eradication concentration (MBEC). The test was performed in a sterile 96-well flat-bottom plastic tissue culture plate (TPP, Switzerland). Each well was filled with 100 µl of bacterial (10^7 CFUs/ml) or yeast (5 × 10^6 CFUs/ml) suspension. When the possibility of inhibition of yeast biofilm formation was tested, the wells were pre-treated with FBS (250 µl per well). Negative controls contained broth only. Positive controls were performed using standard antibacterial and antifungal drugs gentamycin and amphotericin B, respectively. The plates were covered and incubated aerobically for 24 h (bacteria) or 48 h (yeast) at 37 °C. Following the incubation period, each well was aspirated and washed three times with 250 µl of PBS and vigorously shaken in order to remove all non-adherent bacteria/yeast. The remaining attached cells were fixed with methanol (15 min) and the plates were left to dry overnight. The formed biofilm was stained with crystal violet (1%, 5 min). Excess stain was rinsed by placing the plate under running tap water and the plates were left to dry for 24 h. Adherent cells were resolubilized with acetic acid (33%, v/v). The optical density of each well was measured at 570 nm using a Multiscan plate reader. The MBEC value represents the lowest compound dilution at which microorganisms fail to grow.

[23] = test system: Candida albicans ATCC 90028; experiment: Minimum biofilm eradication assay; format: cell-based; details: ATCC90028, 48 h, read-out: MBEC
Method: as §2

Candida kefyr ATCC 2512 [24] = experiment: Minimum biofilm eradication assay; format: cell-based; details: Kluyveromyces marxianus, ATCC2512, 48 h, read-out: MBEC
Method: as §2

[25] = test system: Candida krusei ATCC 14243; experiment: Minimum biofilm eradication assay; format: cell-based; details: Pichia kudriavzevii, ATCC14243, 48 h, read-out: MBEC
Method: as §2

[26] = test system: Candida tropicalis ATCC 750; experiment: Minimum biofilm eradication assay; format: cell-based; details: ATCC750, 48 h, read-out: MBEC
Method: as §2

[27] = test system: Escherichia coli ATCC 10536; experiment: Minimum biofilm eradication assay; format: cell-based
Method: as §2

[28] = test system: Pseudomonas aeruginosa ATCC 9027; experiment: Minimum biofilm eradication assay; format: cell-based
Method: as §2

[29] = Interaction with 1,1-diphenyl-2-picrylhydrazyl (DPPH); details: 100 μΜ
Method: To a solution of DPPH in absolute ethanol, an appropriate volume of the tested compound solution (0.1 mM final concentration) dissolved in DMSO was added. Absorbance was recorded at 517 nm after 20 and 60 min at room temperature (Lambda 20 double beam spectrophotometer, Perkin-Elmer, UK). Experiments were repeated at least in triplicate and the standard deviation of absorbance was less than 10% of the mean[10]. NDGA was used under the same experimental conditions as a reference compound.

Row | SMILES | MIC [1] [µg/mL] | MIC [2] [µg/mL] | MIC [3] [µg/mL] | MIC [4] [µg/mL] | MIC [5] [µg/mL] | MIC [6] [µg/mL] | MIC (Candida kefyr ATCC 2512 [7]) [µg/mL] | MIC [8] [µg/mL] | MIC [9] [µg/mL] | MIC [10] [µg/mL] | MIC [11] [µg/mL] | MIC [12] [µg/mL] | MIC [13] [µg/mL] | MIC [14] [µg/mL] | MIC [15] [µg/mL] | MIC [16] [µg/mL] | MIC [17] [µg/mL] | MIC [18] [µg/mL] | MIC [19] [µg/mL] | MIC [20] [µg/mL] | other results
1 | COc1cc(NC(C)CCCNC(=O)NC(C(=O)NC(c2ccccc2)c2ccc(Cl)cc2)c2ccccc2)c2ncccc2c1 (stereo not shown) [Compound 5c, N-[(4-chlorophenyl)(phenyl)methyl]-2-[({4-[(6-methoxyquinolin-8-yl)amino]pentyl}carbamoyl)amino]-2-phenylacetamide] | > 100 | > 100 | > 100 | 70 (≈ 110 µM) | > 100 | > 100 | > 100 | > 100 | > 100 | > 100 | > 100 | > 100 | 60 (≈ 94.3 µM) | 60 (≈ 94.3 µM) | > 100 | > 100 | 25 (≈ 39.3 µM) | 50 (≈ 78.6 µM) | > 100 | > 100 | MIC [21]: > 100 µg/mL; minimal effective concentration [22]: 50 µg/mL; minimal effective concentration [23]: 25 µg/mL; minimal effective concentration (Candida kefyr ATCC 2512 [24]): > 100 µg/mL; minimal effective concentration [25]: > 100 µg/mL; minimal effective concentration [26]: > 100 µg/mL; MBEC [27]: 6.25 µg/mL; MBEC [28]: 50 µg/mL; DPPH-reducing ability 20 min [29]: 2^b %; DPPH-reducing ability 60 min [29]: 2^b %
2 | COc1cc(NC(C)CCCNC(=O)NC(C(=O)NC(c2ccccc2)c2ccccc2)c2ccc(Cl)cc2)c2ncccc2c1 (stereo not shown) [Compound 5d, 2–(4-chlorophenyl)-N-(diphenylmethyl)-2-[({4-[(6-methoxyquinolin-8-yl)amino]pentyl}carbamoyl)amino]acetamide] | > 100 | 50 (≈ 78.6 µM) | 65 (≈ 102 µM) | > 100 | > 100 | > 100 | > 100 | > 100 | > 100 | > 100 | > 100 | > 100 | 60 (≈ 94.3 µM) | 65 (≈ 102 µM) | > 100 | > 100 | 50 (≈ 78.6 µM) | 65 (≈ 102 µM) | 12.5 (≈ 19.6 µM) | 25 (≈ 39.3 µM) | MIC [21]: 25 µg/mL (≈ 39.3 µM); minimal effective concentration [22]: 50 µg/mL; minimal effective concentration [23]: 25 µg/mL; minimal effective concentration (Candida kefyr ATCC 2512 [24]): 25 µg/mL; minimal effective concentration [25]: > 100 µg/mL; minimal effective concentration [26]: > 100 µg/mL; MBEC [27]: 25 µg/mL; MBEC [28]: 50 µg/mL; DPPH-reducing ability 20 min [29]: 1^b %; DPPH-reducing ability 60 min [29]: 2^b %
3 | COc1cc(NC(C)CCCN)c2ncccc2c1 (stereo not shown) [PQ, 8-[(4-amino-1-methylbutyl)amino]-6-methoxyquinoline, reference compound] | > 100 | 70 (≈ 270 µM) | 80 (≈ 308 µM) | 80 (≈ 308 µM) | 90 (≈ 347 µM) | > 100 | 40 (≈ 154 µM) | > 100 | 25 (≈ 96.4 µM) | > 100 | > 100 | > 100 | 65 (≈ 251 µM) | 40 (≈ 154 µM) | > 100 | 50 (≈ 193 µM) | 65 (≈ 251 µM) | 70 (≈ 270 µM) | 70 (≈ 270 µM) | 45 (≈ 174 µM) | MIC [21]: 50 µg/mL (≈ 193 µM); minimal effective concentration [22]: > 100 µg/mL; minimal effective concentration [23]: > 100 µg/mL; minimal effective concentration (Candida kefyr ATCC 2512 [24]): 50 µg/mL; minimal effective concentration [25]: > 100 µg/mL; minimal effective concentration [26]: > 100 µg/mL; MBEC [27]: 25 µg/mL; MBEC [28]: 70 µg/mL
